Experimental data: ChEMBL document CHEMBL5230131, “Modern trends in diuretics development” (Eur J Med Chem, 2020)

Legend:
Pendrin [1] = molecular target: T1, Pendrin (Mus musculus, UniProt Q9R155); experiment: Inhibition of mouse Pendrin stably expressed in FRT cells with YFP assessed as inhibition of pendrin mediated Cl-/HCO3- exchange by fluorescence assay; assay type: cell-based
T1 sequence (Q9R155 whole entry): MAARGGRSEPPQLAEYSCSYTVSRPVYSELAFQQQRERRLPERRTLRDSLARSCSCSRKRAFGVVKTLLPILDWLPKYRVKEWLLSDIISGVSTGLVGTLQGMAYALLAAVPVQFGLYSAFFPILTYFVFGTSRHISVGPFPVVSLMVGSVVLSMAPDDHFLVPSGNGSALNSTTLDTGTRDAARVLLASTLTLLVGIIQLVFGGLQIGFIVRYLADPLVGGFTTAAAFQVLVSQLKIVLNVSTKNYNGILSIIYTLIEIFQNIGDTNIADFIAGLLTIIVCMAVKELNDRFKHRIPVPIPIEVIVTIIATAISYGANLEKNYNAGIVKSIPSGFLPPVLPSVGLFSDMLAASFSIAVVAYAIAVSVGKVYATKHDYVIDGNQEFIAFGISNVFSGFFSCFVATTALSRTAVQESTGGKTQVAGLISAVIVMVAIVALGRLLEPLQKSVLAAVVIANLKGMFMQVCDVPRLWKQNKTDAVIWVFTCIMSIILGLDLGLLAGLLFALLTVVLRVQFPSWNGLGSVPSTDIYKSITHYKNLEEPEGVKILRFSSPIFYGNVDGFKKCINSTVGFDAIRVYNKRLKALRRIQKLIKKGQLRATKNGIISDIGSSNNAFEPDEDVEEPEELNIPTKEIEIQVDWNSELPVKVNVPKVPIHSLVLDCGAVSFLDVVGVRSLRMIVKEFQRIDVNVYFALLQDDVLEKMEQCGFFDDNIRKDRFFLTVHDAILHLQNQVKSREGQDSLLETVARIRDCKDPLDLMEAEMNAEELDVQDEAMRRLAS

Mus musculus [2] = experiment: Diuretic activity in C57BL/6 mouse assessed as increase in urine volume at 20 mg/kg,ip with long term administration of furosemide measured after 3 hrs; assay type: functional
Pendrin [3] = molecular target: T1, Pendrin; experiment: Inhibition of mouse Pendrin stably expressed in FRT cells with YFP assessed as inhibition of pendrin mediated Cl-/NO3- exchange by fluorescence assay; assay type: cell-based
Mus musculus [4] = experiment: Diuretic activity in CD-1 mouse assessed as increase in urine volume at 10 to 50 mg/kg,ip with short term administration of furosemide measured after 3 hrs; assay type: functional; settings: dose 10-50 mg/kg
Mus musculus [5] = experiment: Diuretic activity in CD-1 mouse assessed as increase in urine volume at 20 mg/kg,ip with long term administration of furosemide measured after 3 hrs; assay type: functional
Pendrin [6] = molecular target: T1, Pendrin; experiment: Inhibition of mouse Pendrin stably expressed in FRT cells with YFP assessed as inhibition of pendrin mediated Cl-/SCN- exchange by fluorescence assay; assay type: cell-based
Mus musculus [7] = experiment: Diuretic activity in C57BL/6 mouse assessed as increase in urine volume at 10 to 50 mg/kg,ip with short term administration of furosemide measured after 3 hrs; assay type: functional; settings: dose 10-50 mg/kg
Aquaporin-1 = molecular target: T2, Aquaporin-1 (Homo sapiens, UniProt P29972); experiment: Agonist activity at human AQP1 water channel expressed in Xenopus laevis oocytes assessed as inhibition of AQP1-mediated osmotic swelling; assay type: cell-based, Oocyte
T2 sequence (P29972 whole entry): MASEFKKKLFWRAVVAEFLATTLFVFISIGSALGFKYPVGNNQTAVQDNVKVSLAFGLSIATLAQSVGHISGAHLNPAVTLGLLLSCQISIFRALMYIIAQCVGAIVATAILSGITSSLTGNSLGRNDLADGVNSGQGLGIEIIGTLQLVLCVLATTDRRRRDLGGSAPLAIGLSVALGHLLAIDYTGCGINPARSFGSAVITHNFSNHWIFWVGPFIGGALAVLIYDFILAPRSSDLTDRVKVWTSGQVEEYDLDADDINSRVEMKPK

Cc1n[nH]c(-c2cc(S(=O)(=O)NC3CCCc4ccccc43)c(C)s2)c1C (stereo not drawn)
IC50 (Pendrin [1]): 10 µM | Activity (Mus musculus [2]): 60% | IC50 (Pendrin [3]): 5 µM | Activity (Mus musculus [4]): 30% | Activity (Mus musculus [5]): 60% | IC50 (Pendrin [6]): 9 µM | Activity (Mus musculus [7]): 30%

COC(=O)c1cc(S(=O)(=O)NCc2ccccc2)c(Cl)cc1NCc1ccco1
EC50 (Aquaporin-1): 3.3 µM
